Test results from patent EP4570800A1, “CRYSTAL FORM OF PYRIDINOPYRIMIDINONE COMPOUND, ACID SALT THEREOF, CRYSTAL FORM OF ACID SALT THEREOF, AND USE” (Wuhan Humanwell Innovative Drug Research and Development …, priority 2022, dated 2024).

Assays:
[1] = system: NCI-H1975 non-small cell lung cancer; assay: In vivo efficacy test of NCI-H1975 non-small cell lung cancer (combination with osimertinib); design: species or system mice; conditions: 1 mg/kg, QD
Procedure: NCI-H1975 tumor cells were cultured in an incubator at 37°C and 5% CO2 using medium containing inactivated RPMI 1640 + 10% FBS. After reaching a confluency rate of 80 to 90%, the cells were passaged by subculturing. After one week of adaptive feeding in mice, NCI-H1975 cells in logarithmic phase were inoculated subcutaneously into the right flank of mice at a concentration of 5 × 10^6/100 µL. Tumor growth was regularly monitored until the tumors reached an average volume of 100 to 150 mm^3. […] Tumor size and animal weight were measured and recorded before and during the administration process. The differences in tumor size between the model group and administration group were compared to determine the efficacy.

[2] = system: H358 cells; assay: Inhibition of 3D cell proliferation (3D CellTiter-Glo); type: cell-based; conditions: Homo sapiens, NCI-H358, 168 h; 3D cell proliferation in H358 cells, 7 days culture, 3D CellTiter-Glo
Procedure: H358 cells were seeded in a T75 culture flask, and cultured in a RPMI 1640 medium containing 10% FBS for 2 days for subsequent experiments in which the cells would be cultured or seeded on a 384-well plate.
On day 1, the cells were seeded on the 384-well plate, with 40 µL of medium added per well and serially diluted compounds or DMSO added per well, and an additional well without seeded cells but with medium was set up as a blank control. After culture at 37°C, 5% CO2 for 7 days, the plate was added with 3D CellTiter-Glo reagent (Promega, Cat. No. G9683) on day 8, shaken at 320 rpm for 20 min, and left at room temperature for 2 h. Luminescence signals were read on a multifunctional microplate reader. Cell viability inhibition rate was calculated as: [formula]
(§1) IC50 values were calculated using Graphpad 5 software.

[3] = Human liver microsome stability test; type: in vitro ADME; conditions: human liver microsomes, incubation for 30 min, 37°C
Procedure: The human liver microsome stability test was performed by incubating the compound and human liver microsomes in vitro. First, the compound to be tested was prepared into a 10 mM stock solution in DMSO solvent, and then the compound was diluted to 0.5 mM with acetonitrile. Human liver microsomes (Corning) were diluted with PBS into a microsome/buffer solution, and the solution was used to dilute 0.5 mM compound into a working solution, in which the concentration of the compound was 1.5 µM, and the concentration of human liver microsomes was 0.75 mg/mL. A deep-well plate was taken, 30 µL of the working solution was added per well, and then 15 µL of pre-heated 6 mM NADPH solution was added thereto to initiate a reaction, and the reaction was incubated at 37°C. At 0, 5, 15, 30, and 45 min of the incubation, 135 µL of acetonitrile was added to the corresponding wells to terminate the reaction. After the reaction was terminated with acetonitrile at the last time point of 45 min, the deep-well plate was vortexed for 10 min (600 rpm/min), and then centrifuged for 15 min. After centrifugation, the supernatant was collected, and added with purified water in a ratio of 1:1 to perform LC-MS/MS detection. A ratio of a peak area of compound to a peak area of internal standard at each time point was obtained, and the peak area ratios of the compound at 5, 15, 30, and 45 min were compared with the peak area ratio at 0 min to calculate the remaining percentage of the compound at each time point. T1/2 was calculated by using GraphPad 5 software.

[4] = system: ERK phosphorylation level in DLD-1 cells; assay: Inhibition of ERK phosphorylation level in DLD-1 cells (intracellular western blot); type: cell-based; conditions: Homo sapiens
Procedure: Intracellular western blot quantitative analysis was used to detect the inhibitory level of compounds on ERK phosphorylation in DLD-1 cells.
DLD-1 cells (ATCC, CCL-221) were seeded in a T75 culture flask at 2.5 × 10^6 cells/flask, and cultured in a RPMI 1640 medium containing 10% FBS for 2 days. On day 3, the cells were seeded on a 384-well plate, and cultured overnight at 37°C, 5% CO2. After overnight culture, the plate was added with serially diluted compounds (the final content of DMSO was 0.5%), the negative group was added with DMSO, and incubated in a 37°C, 5% CO2 incubator.
The cells were fixed, washed once with PBS, treated to disrupt membranes, and blocked at room temperature for 1 h. The blocking solution was removed. The plate was added with primary antibody (CST, Cat. No. #4370S), and incubated overnight at 4°C. The plate was washed 3 times with PBST (PBS solution added with 0.05% Tween-20), and soaked for 2 min each time. The plate was added with secondary antibody (LI-COR, Cat. No. 926-32211), and incubated at room temperature in the dark. The plate was washed 3 times with PBST, and soaked for 2 min each time. The plate was centrifuged at 1000 rpm for 1 min, scanned on a two-color infrared laser imaging system (Odyssey® CLX) to read the signal. Relative signal = 800-channel signal values/700-channel signal values. […]
as §1

[5] = Influence of vacuum drying conditions on crystal form A (XRPD, HPLC purity); type: physicochemical
Procedure: In order to evaluate the influence of the drying conditions on the crystal form A of the compound of formula I, the changes of the sample before and after vacuum drying of the crystal form A of the compound of formula I under the condition of 60°C/80°C for 4 hours were respectively investigated. The XRPD, ^1H NMR, and HPLC purity of the dried sample were tested. […]

[6] = Dynamic solubility in water, SGF, FaSSIF and FeSSIF; conditions: listed as Crystal form A of compound of formula I; for S: solubility: 37°C, solid feed concentration 10 mg/mL; for pH: pH value of the filtrate
Procedure: 100 mg of NaCl and 50 mg of Triton X-100 were weighed into a 50 mL volumetric flask, and purified water was added to complete dissolution. 816 µL of 1 M hydrochloric acid was added thereto, and the pH was adjusted to 1.8 with 1 M hydrochloric acid or 1 M NaOH solution. Purified water was added to make up to volume.
340 mg of anhydrous NaH2PO4, 42 mg of NaOH, and 620 mg of NaCl were weighed into a 100 mL volumetric flask. Purified water was added to complete dissolution. The pH was adjusted to 6.5 with 1 M hydrochloric acid or 1 M NaOH solution. Purified water was added to make up to volume. 110 mg of SIF powder was then weighed into a 50 mL volumetric flask, added with the above solution to complete dissolution and make up to volume.
About 90 mL of purified water was added to complete dissolution, and the pH was adjusted to 5.0 with 1 M hydrochloric acid or 1 M NaOH solution. Purified water was added to make up to volume. 560 mg of SIF powder was then weighed into a 50 mL volumetric flask, added with the above solution to complete dissolution and make up to volume.
Rotating mixing was carried out at 37°C at a solid feed concentration of 10 mg/mL (calculated as the compound of formula I). […] After sampling at each time point, the samples were centrifuged (10000 rpm) and filtered (0.45 µm PTFE filter head), and the HPLC concentration and pH value of the filtrate were measured.

[7] = Solid state stability (XRPD and HPLC); type: physicochemical; conditions: for HPLC results Purity (area%) / Crystal form: listed as Crystal form A of compound of formula I
Procedure: The purity test, dynamic solubility test, and stability test in the assay were measured with an Agilent 1260 high-performance liquid chromatograph, and the salt formation molar ratio of ions was tested by ion chromatography, and the analytical conditions are shown in Table 5 and Table 6.
Table 56 Summary of solid state stability evaluation

[8] = Hygroscopicity by dynamic vapor sorption (DVS); type: physicochemical; conditions: 25°C
Procedure: The dynamic vapor sorption (DVS) curve was collected on DVS IntrInsic from SMS (surface measurement systems). The relative humidity at 25°C was corrected using the deliquescence points of LiCl, Mg(NO3)2, and KCl.
Starting from 0%RH or room humidity, the test collected the mass change percentage of the sample as the humidity changed (0%RH to 95%RH) under constant temperature conditions of 25°C.

With `C=CC(=O)Nc1cc(Nc2nccc(-c3cn(C)c4ccccc34)n2)c(OC)cc1N(C)CCN(C)C` [Osimertinib] as the molecule, how does the “Average tumor weight at the end of the treatment” value [1] read?
Its value is 3.2 g.

Which IC50 [2] does the source give for `Cc1nc(N[C@H](C)c2cccc(C(F)(F)F)c2C)c2cn(C3(CF)CC3)c(=O)cc2n1` [Control compound 1, reference compound] here?
The IC50 was 0.013 µM.

And the “Remaining percentage (%) of compound after incubation for 30 min” value [3]?
The value was 70.2%.

What about the IC50 [4] of the same molecule?
The IC50 was 0.072 µM.

Which results are given for `Cc1nc(N[C@H](C)c2cccc(S(F)(F)(F)(F)F)c2)c2cn(C3(CF)CC3)c(=O)cc2n1`?
Area (%) of main peak (relative retention time 1.00) After vacuum drying at 60°C ([5]; vacuum drying at 60°C for 4 hours, onset 97.07): 97.11%; change in HPLC purity before and after drying ([5]; vacuum drying at 60°C/80°C for 4 hours): no significant change in purity; crystal form after vacuum drying (XRPD) ([5]; vacuum drying at 60°C/80°C for 4 hours, then 19°C/27% RH for 10-15 min): still the crystal form A of the compound of formula I; Area (%) of main peak (relative retention time 1.00) After vacuum drying at 80°C ([5]; vacuum drying at 80°C for 4 hours, onset 97.07): 97.14%; S: solubility ([6]; FaSSIF, 1 hour, 60 min): 0.21 mg/mL; S: solubility ([6]; FaSSIF, 4 hours, 240 min): 0.08 mg/mL; S: solubility ([6]; FaSSIF, 24 hours, 1440 min): 0.05 mg/mL; S: solubility ([6]; FeSSIF, 1 hour, 60 min): 2.72 mg/mL; S: solubility ([6]; FeSSIF, 4 hours, 240 min): 2.88 mg/mL; S: solubility ([6]; FeSSIF, 24 hours, 1440 min): 2.74 mg/mL; S: solubility ([6]; H2O, 1 hour, 60 min): 0.14 mg/mL; S: solubility ([6]; H2O, 4 hours, 240 min): 0.11 mg/mL; S: solubility ([6]; H2O, 24 hours, 1440 min): 0.11 mg/mL; S: solubility ([6]; SGF, 1 hour, 60 min): 6.84 mg/mL; S: solubility ([6]; SGF, 4 hours, 240 min): 7.67 mg/mL; S: solubility ([6]; SGF, 24 hours, 1440 min): 7.76 mg/mL; pH ([6]; FaSSIF, 1 hour): 6.3; pH ([6]; FaSSIF, 4 hours): 6.3; pH ([6]; FaSSIF, 24 hours): 6.4; pH ([6]; FeSSIF, 1 hour): 5.1; pH ([6]; FeSSIF, 4 hours): 5.1; pH ([6]; FeSSIF, 24 hours): 5.1; pH ([6]; H2O, 1 hour): 5.4; pH ([6]; H2O, 4 hours): 6.0; pH ([6]; H2O, 24 hours): 5.8; pH ([6]; SGF, 1 hour): 3.2; pH ([6]; SGF, 4 hours): 3.3; pH ([6]; SGF, 24 hours): 3.2; HPLC results Purity (area%) ([7]; 25°C/60%RH/open, 1 week): 97.13 area%; HPLC results Purity (area%) ([7]; 40°C/75%RH/open, 1 week): 97.14 area%; HPLC results Purity (area%) ([7]; Onset): 97.06 area%; Crystal form ([7]; XRPD after 25°C/60%RH/open, 1 week): Crystal form A of compound of formula I; Crystal form ([7]; XRPD after 40°C/75%RH/open, 1 week): Crystal form A of compound of formula I; solid state stability ([7]; open, one week at 25°C/60% RH and 40°C/75% RH): good stability; DVS behaviour when higher than 10% RH ([8]; higher than 10% RH): absorb more moisture and gain more weight with the increase of humidity; DVS behaviour when lower than 10% RH ([8]; lower than 10% RH): rapidly dehydrate
